Experimental data reported in patent US6310093A (priority 1998, dated 2001).

Tested on: neuronal cultures
Assay: Glutamate production by intact and damaged neuronal cultures with added glutamine
Type: cell-based, mouse (Swiss Webster)
Details: for Glutamate concentration (in words) / Glutamate production (S): 2 mM Gln
Description: When 2 mM glutamine is added to intact neuronal cultures, the rate at which glutamate accumulates in the culture medium increases with time (FIG. 2). Since the clearance of medium glutamate by neuronal cultures is extremely slow, one estimate of the rate of glutamate production by neurons exposed to glutamine can be obtained from the initial rate of glutamate accumulation. Using the difference in glutamate concentrations at 1 and 15 min after glutamine addition, a value of 0.032±0.006 μM/min (12.8 pmol/min) was obtained. Since glutamine exposure itself eventually causes neuronal death and high rates of glutamine hydrolysis, this estimate of glutamate production should be viewed as an upper limit. However, this value is similar to that obtained by comparing glutamate production by glial and mixed neuronal-glial cultures exposed to glutamine (see below).
In the absence of added glutamine (i.e., in the 0.15 mM glutamine manufactured by the neuronal cultures), glutamate production into the medium of cultures lysed by freezing and thawing occurred at a rate of 0.035±0.006 μM/min (14 pmol/min). […] Thus, damaged neurons incubated in 2 mM glutamine produce within 6-8 min an amount equal to that released by freeze-thawing.
Pre-column derivatization with o-phthalaldehyde (OPA, Sigma) and separation by reversed phase HPLC was used. A Gilson HPLC was fitted with a Hewlett-Packard model 1046A fluorimetric detector (excitation 340 nm, emission 420 nm). Medium was collected from cell culture at various times, and frozen at -80° C., prior to dilution of 5 or 10 μl into auto-sampler vials containing 40 or 45 μl dimethylformamide:water 1:3 (derivatives with 2-mercaptoethanol) or 1:9 (derivatives with N-acetyl-L-cysteine). For analysis of the derivatives formed with 2-mercaptoethanol, samples were reacted according to published methods (Newcomb, R. (1989) LC GC 7, 570-578; Lindroth, P., and Mopper. K., (1979) Anal. Chem. 51, 1667-1674.), and a gradient of 0-40% methanol in 1.25 mM sodium phosphate pH 6.2 over 20 min was used to elute the derivatives from a 4.5×250 mm Beckman Ultrasphere octadecylsilica column (dp 5 μm) at 1 ml/min. For analysis of the derivatives formed with N-acetyl-L-cysteine (Bruckner), samples were reacted with 25 μl of 1 mg/ml OPA, and 50 μl of 1 mg/ml N-acetyl-L-cysteine (Fluka) in 0.5 M potassium borate pH 10.0. Chromatography was carried out on a 4.5×250 mm Phenomonex Primesphere "HC" octadecylsilica column (dp 5 μm) using a gradient of 0-35% methanol in 15 mM sodium phosphate pH 6.2 (0.13% tetrahydrofuran) over 65 minutes at 1 ml/min. It was shown for each of the experimental conditions (ie. glial and control and damaged neuronal and mixed cultures) that both analytical systems gave results for glutamate and glutamine measurements which were, within error, identical.
Glutamate concentrations were converted to units of pmol/μl of culture medium, or μM. In the absence of cellular uptake (ie, in damaged neuronal cultures), the rate of glutamate production was obtained directly from the measurements of the amounts of glutamate in culture medium at various times.

NC(=O)CC[C@H](N)C(=O)O [Gln, glutamine]
glutamate production by damaged neurons vs intact neurons or glia (2 mM glutamine): 10-30 fold | Glutamate concentration (in words) (NMDA-treated neurons): increases linearly | Glutamate production (S) (NMDA-treated neurons): 0.54 ± 0.09 µM/min | glutamate production per culture (NMDA-treated neurons, 2 mM glutamine): 216 pmol/min | Glutamate concentration (in words) (freeze-thaw damaged neurons): increases linearly | Glutamate production (S) (freeze-thaw damaged neurons): 0.79 ± 0.08 µM/min | glutamate production per culture (freeze-thawed neurons, 2 mM glutamine): 316 pmol/min | Glutamate concentration (in words) (intact neurons): increases | Glutamate production (S) (intact neurons): 0.032 ± 0.006 µM/min | glutamate production per culture (intact neurons, 2 mM glutamine): 12.8 pmol/min
